Legend:
[1] = molecular target: Sodium-dependent serotonin transporter (Homo sapiens) (UniProt P31645); experiment: 5HTTRANS/HU Eurofins-Panlabs selectivity data (BI); details: Compound concentration 10.0 uM
[2] = molecular target: Adenosine receptor A2a (Homo sapiens) (UniProt P29274); experiment: A2A/HU Eurofins-Panlabs selectivity data (BI); details: Compound concentration 10.0 uM
[3] = molecular target: Alpha-1B adrenergic receptor (Homo sapiens) (UniProt P35368); experiment: ALPHA1B/R Eurofins-Panlabs selectivity data (BI); details: Rattus norvegicus; Compound concentration 10.0 uM
Alpha-1B adrenergic receptor (Homo sapiens), sequence (P35368 whole entry): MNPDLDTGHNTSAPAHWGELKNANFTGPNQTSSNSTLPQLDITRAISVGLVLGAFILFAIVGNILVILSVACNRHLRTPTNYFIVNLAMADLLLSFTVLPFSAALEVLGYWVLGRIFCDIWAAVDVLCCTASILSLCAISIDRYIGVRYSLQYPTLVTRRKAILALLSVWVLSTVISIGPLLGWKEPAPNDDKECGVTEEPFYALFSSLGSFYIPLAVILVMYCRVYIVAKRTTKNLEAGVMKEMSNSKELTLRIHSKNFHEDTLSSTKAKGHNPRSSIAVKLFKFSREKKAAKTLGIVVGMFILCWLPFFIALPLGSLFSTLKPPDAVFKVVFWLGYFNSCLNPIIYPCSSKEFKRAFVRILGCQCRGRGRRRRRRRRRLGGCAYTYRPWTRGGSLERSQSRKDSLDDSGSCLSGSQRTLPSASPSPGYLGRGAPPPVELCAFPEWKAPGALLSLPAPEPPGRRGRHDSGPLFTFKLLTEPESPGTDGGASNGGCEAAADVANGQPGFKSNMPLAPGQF

[4] = molecular target: T1, Alpha-1D adrenergic receptor (Homo sapiens) (UniProt P25100); experiment: ALPHA1D/H Eurofins-Panlabs selectivity data (BI); details: Compound concentration 10.0 uM
T1 sequence (whole entry): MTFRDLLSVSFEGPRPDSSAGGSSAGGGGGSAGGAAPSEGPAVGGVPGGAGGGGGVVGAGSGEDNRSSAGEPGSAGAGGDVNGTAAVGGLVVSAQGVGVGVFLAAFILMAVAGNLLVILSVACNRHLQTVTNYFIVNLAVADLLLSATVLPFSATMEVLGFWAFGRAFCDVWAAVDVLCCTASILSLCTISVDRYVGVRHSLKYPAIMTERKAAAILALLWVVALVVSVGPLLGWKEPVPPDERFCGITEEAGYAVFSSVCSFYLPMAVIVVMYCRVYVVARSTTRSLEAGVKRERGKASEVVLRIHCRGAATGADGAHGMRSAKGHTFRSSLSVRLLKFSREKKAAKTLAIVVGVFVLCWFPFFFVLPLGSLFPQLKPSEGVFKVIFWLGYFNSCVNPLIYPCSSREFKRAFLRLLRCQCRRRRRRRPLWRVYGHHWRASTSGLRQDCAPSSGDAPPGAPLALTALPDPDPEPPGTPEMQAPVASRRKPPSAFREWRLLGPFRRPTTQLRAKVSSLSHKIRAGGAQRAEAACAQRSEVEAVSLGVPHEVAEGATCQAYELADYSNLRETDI

[5] = molecular target: B2 bradykinin receptor (Homo sapiens) (UniProt P30411); experiment: B2/HU Eurofins-Panlabs selectivity data (BI); details: Compound concentration 10.0 uM
[6] = molecular target: Beta-1 adrenergic receptor (Homo sapiens) (UniProt P08588); experiment: BETA1/HU Eurofins-Panlabs selectivity data (BI); details: Compound concentration 10.0 uM
[7] = molecular target: D(1A) dopamine receptor (Homo sapiens) (UniProt P21728); experiment: D1/HU Eurofins-Panlabs selectivity data (BI); details: Compound concentration 10.0 uM
D(1A) dopamine receptor (Homo sapiens), sequence (P21728 whole entry): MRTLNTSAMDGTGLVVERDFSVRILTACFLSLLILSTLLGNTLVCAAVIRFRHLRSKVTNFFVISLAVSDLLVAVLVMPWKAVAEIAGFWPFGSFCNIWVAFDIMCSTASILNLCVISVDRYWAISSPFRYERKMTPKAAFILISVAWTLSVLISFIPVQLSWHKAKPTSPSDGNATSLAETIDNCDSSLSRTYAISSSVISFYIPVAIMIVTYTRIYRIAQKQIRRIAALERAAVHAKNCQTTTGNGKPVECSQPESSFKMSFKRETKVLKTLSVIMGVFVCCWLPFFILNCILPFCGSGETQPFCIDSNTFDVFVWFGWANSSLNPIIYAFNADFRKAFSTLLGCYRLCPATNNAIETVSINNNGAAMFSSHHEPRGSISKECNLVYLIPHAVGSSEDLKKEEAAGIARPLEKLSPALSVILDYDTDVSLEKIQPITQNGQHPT

[8] = molecular target: D(3) dopamine receptor (Homo sapiens) (UniProt P35462); experiment: D3/HU Eurofins-Panlabs selectivity data (BI); details: Compound concentration 10.0 uM
D(3) dopamine receptor (Homo sapiens), sequence (P35462 whole entry): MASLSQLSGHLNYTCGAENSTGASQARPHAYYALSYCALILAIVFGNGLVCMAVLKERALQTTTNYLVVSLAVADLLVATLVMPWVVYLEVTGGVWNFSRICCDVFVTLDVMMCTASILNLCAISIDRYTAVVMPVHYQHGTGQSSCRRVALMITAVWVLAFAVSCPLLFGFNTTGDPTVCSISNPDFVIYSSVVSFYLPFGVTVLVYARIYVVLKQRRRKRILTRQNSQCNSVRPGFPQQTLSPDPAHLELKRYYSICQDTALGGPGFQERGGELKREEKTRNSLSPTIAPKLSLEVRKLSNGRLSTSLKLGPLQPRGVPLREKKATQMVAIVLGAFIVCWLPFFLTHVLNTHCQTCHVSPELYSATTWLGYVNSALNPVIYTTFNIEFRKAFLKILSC

[9] = molecular target: T2, D(4) dopamine receptor (Homo sapiens) (UniProt P21917); experiment: D4.2/H Eurofins-Panlabs selectivity data (BI); details: Compound concentration 10.0 uM
T2 sequence (whole entry): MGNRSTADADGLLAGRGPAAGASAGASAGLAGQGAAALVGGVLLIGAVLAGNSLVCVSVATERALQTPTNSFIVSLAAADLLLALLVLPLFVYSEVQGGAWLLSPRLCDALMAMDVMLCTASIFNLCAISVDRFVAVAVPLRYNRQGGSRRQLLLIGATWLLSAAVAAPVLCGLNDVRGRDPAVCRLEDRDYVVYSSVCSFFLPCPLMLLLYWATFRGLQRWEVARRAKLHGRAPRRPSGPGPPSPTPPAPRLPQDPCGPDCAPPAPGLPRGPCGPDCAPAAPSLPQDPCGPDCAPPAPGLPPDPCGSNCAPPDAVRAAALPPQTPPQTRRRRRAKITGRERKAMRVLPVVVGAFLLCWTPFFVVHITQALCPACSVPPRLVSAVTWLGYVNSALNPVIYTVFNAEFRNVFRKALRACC

[10] = molecular target: Estrogen receptor (Homo sapiens) (UniProt P03372); experiment: ERALPHA/H Eurofins-Panlabs selectivity data (BI); details: Compound concentration 10.0 uM
[11] = molecular target: Endothelin-1 receptor (Homo sapiens) (UniProt P25101); experiment: ETA/HU Eurofins-Panlabs selectivity data (BI); details: Compound concentration 10.0 uM
[12] = molecular target: Sodium- and chloride-dependent GABA transporter 1 (Rattus norvegicus) (UniProt P23978); experiment: GABATRANS/RA Eurofins-Panlabs selectivity data (BI); details: Compound concentration 10.0 uM
[13] = molecular target: Gamma-aminobutyric acid type B receptor subunit 1 (Homo sapiens) (UniProt Q9UBS5); experiment: GABA_B1A Eurofins-Panlabs selectivity data (BI); details: Compound concentration 10.0 uM
Gamma-aminobutyric acid type B receptor subunit 1 (Homo sapiens), sequence (Q9UBS5 whole entry): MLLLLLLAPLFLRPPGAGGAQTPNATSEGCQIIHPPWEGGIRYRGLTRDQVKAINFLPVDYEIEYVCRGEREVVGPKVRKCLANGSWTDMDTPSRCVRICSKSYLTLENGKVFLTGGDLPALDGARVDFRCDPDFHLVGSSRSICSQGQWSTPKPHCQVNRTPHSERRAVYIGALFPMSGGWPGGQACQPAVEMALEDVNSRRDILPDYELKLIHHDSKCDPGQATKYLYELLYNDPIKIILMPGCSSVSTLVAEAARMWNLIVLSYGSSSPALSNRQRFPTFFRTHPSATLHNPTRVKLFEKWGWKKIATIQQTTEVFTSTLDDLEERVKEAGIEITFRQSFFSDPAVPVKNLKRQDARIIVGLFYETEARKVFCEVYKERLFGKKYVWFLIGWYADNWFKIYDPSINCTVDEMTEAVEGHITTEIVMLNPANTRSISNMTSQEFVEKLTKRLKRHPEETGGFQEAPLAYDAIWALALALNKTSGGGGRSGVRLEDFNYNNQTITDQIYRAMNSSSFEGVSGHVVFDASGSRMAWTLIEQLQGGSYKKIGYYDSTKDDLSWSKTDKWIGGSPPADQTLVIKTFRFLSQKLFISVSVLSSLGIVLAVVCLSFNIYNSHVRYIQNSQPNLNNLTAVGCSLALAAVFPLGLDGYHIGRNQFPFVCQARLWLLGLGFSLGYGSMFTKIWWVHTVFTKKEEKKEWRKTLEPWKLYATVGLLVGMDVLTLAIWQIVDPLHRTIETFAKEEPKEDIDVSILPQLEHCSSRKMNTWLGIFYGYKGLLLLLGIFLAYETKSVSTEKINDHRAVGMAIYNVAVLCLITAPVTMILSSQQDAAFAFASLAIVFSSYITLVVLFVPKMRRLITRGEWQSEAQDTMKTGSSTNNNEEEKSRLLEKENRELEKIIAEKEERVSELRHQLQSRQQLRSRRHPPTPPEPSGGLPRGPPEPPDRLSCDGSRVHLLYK

[14] = molecular target: Substance-P receptor (Homo sapiens) (UniProt P25103); experiment: NK1/HU Eurofins-Panlabs selectivity data (BI); details: Compound concentration 10.0 uM
[15] = molecular target: Protein kinase C alpha type (Mus musculus) (UniProt P20444); experiment: PHORBOLE/M Eurofins-Panlabs selectivity data (BI); details: Compound concentration 10.0 uM
[16] = molecular target: 3',5'-cyclic-AMP phosphodiesterase 4A (Rattus norvegicus) (UniProt P54748); experiment: ROLIPRAM/R Eurofins-Panlabs selectivity data (BI); details: Compound concentration 10.0 uM
[17] = molecular target: Sigma intracellular receptor 2 (Homo sapiens) (UniProt Q5BJF2); experiment: SIGMA2/R Eurofins-Panlabs selectivity data (BI); details: Rattus norvegicus; Compound concentration 10.0 uM
Sigma intracellular receptor 2 (Homo sapiens), sequence (Q5BJF2 whole entry): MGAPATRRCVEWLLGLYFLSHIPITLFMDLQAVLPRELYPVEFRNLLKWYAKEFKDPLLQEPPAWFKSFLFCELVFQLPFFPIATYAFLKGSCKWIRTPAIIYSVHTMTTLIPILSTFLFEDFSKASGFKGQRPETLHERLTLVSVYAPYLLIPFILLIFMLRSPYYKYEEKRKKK

[18] = molecular target: Neuropeptide Y receptor type 2 (Homo sapiens) (UniProt P49146); experiment: Y2/HU Eurofins-Panlabs selectivity data (BI); details: Compound concentration 10.0 uM
Neuropeptide Y receptor type 2 (Homo sapiens), sequence (P49146 whole entry): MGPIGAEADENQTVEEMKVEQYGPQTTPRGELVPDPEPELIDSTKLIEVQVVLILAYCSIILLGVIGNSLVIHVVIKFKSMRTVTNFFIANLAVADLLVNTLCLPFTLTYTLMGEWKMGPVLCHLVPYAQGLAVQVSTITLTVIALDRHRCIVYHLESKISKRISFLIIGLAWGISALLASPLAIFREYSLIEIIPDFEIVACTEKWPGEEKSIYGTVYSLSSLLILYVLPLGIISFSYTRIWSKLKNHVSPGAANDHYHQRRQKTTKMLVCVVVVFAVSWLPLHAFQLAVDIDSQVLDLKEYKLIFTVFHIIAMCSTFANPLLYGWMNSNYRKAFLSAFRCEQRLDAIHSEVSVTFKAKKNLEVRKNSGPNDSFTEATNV

[19] = molecular target: 5-hydroxytryptamine receptor 1A (Homo sapiens) (UniProt P08908); details: Compound concentration 10.0 uM
[20] = molecular target: 5-hydroxytryptamine receptor 1E (Homo sapiens) (UniProt P28566); details: Compound concentration 10.0 uM
[21] = molecular target: Histamine H3 receptor (Homo sapiens) (UniProt Q9Y5N1); details: Compound concentration 10.0 uM
Histamine H3 receptor (Homo sapiens), sequence (Q9Y5N1 whole entry): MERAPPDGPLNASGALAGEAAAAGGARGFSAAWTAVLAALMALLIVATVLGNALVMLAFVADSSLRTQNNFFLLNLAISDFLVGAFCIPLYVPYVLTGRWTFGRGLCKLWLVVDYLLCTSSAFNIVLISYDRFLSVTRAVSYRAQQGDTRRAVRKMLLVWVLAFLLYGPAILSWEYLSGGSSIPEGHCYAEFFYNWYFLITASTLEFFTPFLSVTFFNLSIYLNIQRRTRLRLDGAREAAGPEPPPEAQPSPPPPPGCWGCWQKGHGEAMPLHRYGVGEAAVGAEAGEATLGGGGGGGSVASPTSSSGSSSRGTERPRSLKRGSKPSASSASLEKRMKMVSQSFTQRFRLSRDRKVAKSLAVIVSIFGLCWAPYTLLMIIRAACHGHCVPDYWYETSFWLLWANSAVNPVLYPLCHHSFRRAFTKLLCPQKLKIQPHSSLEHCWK

[22] = molecular target: Beta-2 adrenergic receptor (Homo sapiens) (UniProt P07550); details: Compound concentration 10.0 uM
Beta-2 adrenergic receptor (Homo sapiens), sequence (P07550 whole entry, looked up): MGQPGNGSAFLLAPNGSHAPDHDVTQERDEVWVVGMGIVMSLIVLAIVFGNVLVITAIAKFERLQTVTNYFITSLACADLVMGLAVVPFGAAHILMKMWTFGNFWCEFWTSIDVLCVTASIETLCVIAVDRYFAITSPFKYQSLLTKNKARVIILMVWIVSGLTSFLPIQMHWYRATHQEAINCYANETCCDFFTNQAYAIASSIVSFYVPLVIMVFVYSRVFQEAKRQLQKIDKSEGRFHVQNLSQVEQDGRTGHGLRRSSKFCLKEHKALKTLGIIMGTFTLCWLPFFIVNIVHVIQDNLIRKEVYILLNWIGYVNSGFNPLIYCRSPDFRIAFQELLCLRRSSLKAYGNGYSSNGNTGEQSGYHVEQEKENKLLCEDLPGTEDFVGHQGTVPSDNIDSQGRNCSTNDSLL

[23] = molecular target: MAP/microtubule affinity-regulating kinase 3 (Homo sapiens) (UniProt P27448); details: Compound concentration 1000.0 nM
MAP/microtubule affinity-regulating kinase 3 (Homo sapiens), sequence (P27448 whole entry, looked up): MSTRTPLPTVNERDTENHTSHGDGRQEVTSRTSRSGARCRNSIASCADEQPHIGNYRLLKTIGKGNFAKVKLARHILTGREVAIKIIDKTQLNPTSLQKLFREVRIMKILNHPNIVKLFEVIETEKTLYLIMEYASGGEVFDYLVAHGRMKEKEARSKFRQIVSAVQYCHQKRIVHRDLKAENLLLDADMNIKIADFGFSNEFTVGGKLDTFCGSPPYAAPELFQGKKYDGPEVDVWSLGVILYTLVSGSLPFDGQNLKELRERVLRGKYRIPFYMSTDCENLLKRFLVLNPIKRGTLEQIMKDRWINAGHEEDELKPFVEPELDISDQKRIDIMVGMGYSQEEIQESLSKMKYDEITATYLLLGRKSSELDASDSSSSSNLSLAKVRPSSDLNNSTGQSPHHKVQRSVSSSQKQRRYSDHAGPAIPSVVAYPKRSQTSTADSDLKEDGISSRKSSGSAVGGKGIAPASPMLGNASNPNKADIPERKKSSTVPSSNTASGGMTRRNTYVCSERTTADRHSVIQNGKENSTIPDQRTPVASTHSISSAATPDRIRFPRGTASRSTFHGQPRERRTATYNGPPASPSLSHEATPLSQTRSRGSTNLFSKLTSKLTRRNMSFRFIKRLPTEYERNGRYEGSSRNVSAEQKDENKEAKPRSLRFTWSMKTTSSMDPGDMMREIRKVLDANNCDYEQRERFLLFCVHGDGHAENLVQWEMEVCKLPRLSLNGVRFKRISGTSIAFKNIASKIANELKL

[24] = molecular target: D(1A) dopamine receptor (Homo sapiens) (UniProt P21728); details: Compound concentration 10.0 uM
[25] = molecular target: D(3) dopamine receptor (Homo sapiens) (UniProt P35462); details: Compound concentration 10.0 uM
[26] = molecular target: Histamine H2 receptor (Homo sapiens) (UniProt P25021); details: Compound concentration 10.0 uM
Histamine H2 receptor (Homo sapiens), sequence (P25021 whole entry): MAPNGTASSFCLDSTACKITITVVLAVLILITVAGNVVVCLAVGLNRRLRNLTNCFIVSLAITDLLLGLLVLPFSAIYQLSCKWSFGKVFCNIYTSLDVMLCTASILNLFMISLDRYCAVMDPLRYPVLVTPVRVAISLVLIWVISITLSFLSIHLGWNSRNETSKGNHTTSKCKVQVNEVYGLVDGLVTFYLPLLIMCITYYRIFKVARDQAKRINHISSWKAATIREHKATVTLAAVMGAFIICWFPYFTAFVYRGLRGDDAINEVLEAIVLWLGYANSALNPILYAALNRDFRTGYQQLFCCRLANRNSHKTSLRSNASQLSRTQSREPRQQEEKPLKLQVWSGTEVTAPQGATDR

[27] = molecular target: Alpha-1B adrenergic receptor (Homo sapiens) (UniProt P35368); details: Compound concentration 10.0 uM

CC(=O)N1CCC(c2ccc(C(=O)NC(=N)N)cc2C(F)(F)F)CC1 [BI 9627]
inactive: residual activity [1] 89% | residual activity [2] 86% | residual activity [3] 95% | residual activity [4] 98% | residual activity [5] 105% | residual activity [6] 102% | residual activity [7] 94% | residual activity [8] 117% | residual activity [9] 105% | residual activity [10] 106% | residual activity [11] 103% | residual activity [12] 101% | residual activity [13] 103% | residual activity [14] 100% | residual activity [15] 101% | residual activity [16] 92% | residual activity [17] 90% | residual activity [18] 103% | inhibition [19] -5.21% | inhibition [20] -9.59% | inhibition [21] -6.54% | inhibition [22] -9.75%

CC(=O)N1CCC(c2ccc(C(=O)NC3=NCCN3)cc2C(F)(F)F)CC1 [BI 0054]
inactive: residual activity [23] 100% | inhibition [24] 4.8% | inhibition [25] -7.75% | inhibition [26] -9.37% | inhibition [27] -0.596%
